US6627202B2, “HBV core antigen particles with multiple immunogenic components attached via peptide ligands” (Biogen, Inc., priority 1998, dated 2003)
“And” between values parts separate entries of the source, which are not always exact repeats. Equal entries are not always repeated. Non-standard residues stand in square brackets, D forms with d. No end group written: not given here. βAla = NCCC(=O)O

B1: C-terminally truncated HBV core antigen aa3-148: C-terminally truncated HBV core antigen expressed in E.coli (protein)
chain: IDPYKEFGATVELLSFLPSDFFPSVRDLLDTASALYREALESPEHCSPHHTALRQAILCWGELMTLATWVGVNLEDPASRDLVVSYVNTNMGLKFRQLLWFHISCLTFGRETVIEYLVSFGVWIRTPPAYRPPNAPILSTLPETTV

target: HBV core antigen (Hepatitis B virus genotype D subtype adw, UniProt P03147); assay: not given; details: fd fusion phage carrying the peptide sequence in the amino terminal region of gpIII; in solution, phage associated form; read-out: KD^Rel (nM) relative dissociation constant; cited from earlier work
Sequence (P03147 3-183): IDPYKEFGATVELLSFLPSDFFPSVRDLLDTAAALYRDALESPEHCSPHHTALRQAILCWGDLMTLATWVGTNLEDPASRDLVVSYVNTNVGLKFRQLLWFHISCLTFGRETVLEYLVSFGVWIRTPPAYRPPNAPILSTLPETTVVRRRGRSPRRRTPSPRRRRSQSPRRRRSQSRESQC

**Q.** With ADGAHRSLLGRMKGA as the molecule, how does the Kd read?
**A.** The Kd was 0.94 ± 0.12 nM.

**Q.** Which Kd does the source give for ADGALLGRMKPA here?
**A.** Its Kd is 767 ± 8 nM.

**Q.** Which Kd does the source give for ADGALLGRMKRA here?
**A.** Its Kd is 181 ± 12 nM.

**Q.** For ADGHRSSLLGRMKGA, which Kd is on record?
**A.** Its Kd is 1.4 ± 0.13 nM.

**Q.** With ADGPRSSLLGRMKGA as the molecule, how does the Kd read?
**A.** The Kd was 0.84 ± 0.07 nM.

**Q.** Which Kd does the source give for ADGSLLGRMKPA here?
**A.** The Kd was 322 ± 50 nM.

**Q.** With ADGSRSSLLGRMKGA as the molecule, how does the Kd read?
**A.** The Kd was 1.96 ± 0.32 nM.

**Q.** With ADGTLLGRMKLA as the molecule, how does the Kd read?
**A.** The Kd was 20 ± 2 nM.

**Q.** For ADGTQRSLLGRMKGA, which Kd is on record?
**A.** The Kd was 0.84 ± 0.06 nM.

**Q.** Which Kd does the source give for ADGYQRSLLGRMKGA here?
**A.** Its Kd is 0.88 ± 0.08 nM.

**Q.** For ADRSLLGRMKGA, which Kd is on record?
**A.** The Kd was 1.09 ± 0.02 nM.

target: binding of L HBsAg to HBV core antigen (Hepatitis B virus genotype D subtype adw, UniProt P03147); assay: not given; details: N/D represents no observable inhibition; read-out: IC50 μM, concentration of peptide required to inhibit binding of L HBsAg to HBV core antigen at a half maximal level; cited from earlier work
Sequence (P03147 3-183): as above

**Q.** With ACSLLGRMKG as the molecule, how does the IC50 read?
**A.** Its IC50 is 26.2 ± 5 µM.

**Q.** For ADGSLLGRMKGAAG, which IC50 is on record?
**A.** The IC50 was 4.5 ± 0.8 µM.

**Q.** For ALLGRMKG, which IC50 is on record?
**A.** Its IC50 is 10 µM and 11 µM.

**Q.** Which IC50 does the source give for CLLGRMKC here?
**A.** The IC50 was 652 ± 74 µM.

**Q.** Which IC50 does the source give for DGSLLGRMKGAA here?
**A.** The IC50 was 3 ± 0.4 µM.

**Q.** For HRSLLGRMKGA, which IC50 is on record?
**A.** The IC50 was 0.5 ± 0.04 µM.

**Q.** With LGRMKG as the molecule, how does the IC50 read?
**A.** The IC50 was 980 ± 157 µM.

**Q.** For LLGRMKG, which IC50 is on record?
**A.** The IC50 was 46.2 ± 7.4 µM.

**Q.** With MHRSLLGRMKGA as the molecule, how does the IC50 read?
**A.** The IC50 was 0.8 ± 0.1 µM.

**Q.** For MHRSLLGRMKGAG(β-A)GC, which IC50 is on record?
**A.** The IC50 was 3.8 ± 0.69 µM.

**Q.** With RSLLGRMKGA as the molecule, how does the IC50 read?
**A.** The IC50 was 0.29 ± 0.02 µM.

**Q.** With RSLLGRMKGA(β-A)C (RSLLGRMKGA[βAla]C) as the molecule, how does the IC50 read?
**A.** The IC50 was 0.29 ± 0.03 µM.

**Q.** Which IC50 does the source give for SLLGRMK here?
**A.** The IC50 was 40.7 ± 4.8 µM.

**Q.** With SLLGRMKG as the molecule, how does the IC50 read?
**A.** Its IC50 is 6.4 ± 0.7 µM.

**Q.** With SLLGRMKG(β-A)C (SLLGRMKG[βAla]C) as the molecule, how does the IC50 read?
**A.** Its IC50 is 1.8 ± 0.4 µM.

**Q.** For SLLGRMKGA, which IC50 is on record?
**A.** Its IC50 is 2.4 ± 0.2 µM.

system: not listed separately; assay: storage stability of HBV core antigen preparations; type: physicochemical; details: 4° C., sucrose gradient fractions in TBS, sucrose (20%), NaN3 (0.02%)
Procedure: Expression of either HBV core antigen (aa3-183) or C-terminally truncated HBV core antigen aa3-148) in E.coli and purification were performed as described in Dyson and Murray (1995). Protein preparations were stored at 4° C. as sucrose gradient fractions in a buffer containing TBS, sucrose (20%) and NaN3 (0.02%).

**Q.** With B1 as the molecule, how does the “stability of protein preparation on storage” value read?
**A.** The value was “stable in this form for at least six months”.
